From US20260240878A1, “PTP1B/TC-PTP DUAL INHIBITORS AND PROTEIN DEGRADERS” (Purdue Research Foundation, priority 2023, published 2026)
*1 amine or outer side, *2 acyl side, *3 side chain or, on linkers, in order; H or OH if unused. Where a SMILES comes first, the peptide text is derived from it. [ ]: non-standard residue; d: D form. The star is where a group is joined. NHCH2(1,3-C6H4)CH2CO = O=C(Cc1cccc(CN[*:1])c1)[*:2]; F2Pmp = N[C@@H](Cc1ccc(C(F)(F)P(=O)(O)O)cc1)C(=O)O; Phenylacetyl(4-OH,3-OMe) = COc1cc(CC(=O)*)ccc1O; Benzoyl(3-Br,4-Me) = Cc1ccc(C(=O)*)cc1Br; X1 = Cc1ncsc1-c1ccc([C@H](C)N*)cc1; Hyp = O=C(O)[C@@H]1C[C@@H](O)CN1; Tle = CC(C)(C)[C@H](N)C(=O)O

How the values were obtained:
CD8+ naïve T-cells = experiment: Degradation, STAT phosphorylation and activation in CD8+ naive T-cells (flow cytometry); assay type: cell-based, mouse
Procedure: In (A) purified CD8^+ naïve T-cells from control (Ptpn2^fl/fl) and Lck-Cre; Ptpn2^fl/fl mice (n=3/genotype/condition) were incubated for 48 hours with IL-7 in the presence or absence of compound 47 as indicated, and TC-PTP and PTP1B protein levels were monitored by flow cytometry. (B) show vehicle-treated control, TCPTP-deficient Lck-Cre; Ptpn2^fl/fl and compound 47-treated control naïve CD8^+ T-cells were stimulated with plate-bound α-CD3/α-CD28 for 48 hours to promote T-cell activation. Basal STAT-1 (p(Y701) STAT-1) and STAT-5 (p(Y694) STAT-5) phosphorylation were assessed by flow cytometry. (C) cell size (FSC-A) and the T-cell activation markers CD25, CD69 and CD44 (MFI: mean fluorescence intensities) were measured by flow cytometry. (dot (●) represents Ptpn2^fl/fl+Vehicle, square (▪) represents Lck-Cre; Ptpn2^fl/fl+Vehicle, triangle (▴) represents Ptpn2^fl/fl+ compound 47).
Beyond attenuating JAK/STAT signaling in tumor cells, PTP1B and TC-PTP also have fundamental roles in T-cells, and the deletion of either TC-PTP or PTP1B in T-cells can markedly enhance anti-tumor immunity. TC-PTP attenuates T-cell receptor (TCR) signaling by dephosphorylating and inactivating the Src family kinase LCK. TC-PTP attenuates JAK/STAT1/5 signaling in response to cytokines such as IFNs and IL-2, which are required for the activation, clonal expansion, and differentiation of T-cells. The deletion of TC-PTP in T-cells enhances immunosurveillance and inhibits the growth of syngeneic tumors in mice and the anti-tumor efficacy of adoptively transferred T-cells. PTP1B also negatively regulates IL-2-induced JAK/STAT5 signaling in T-cells, and its deletion or inhibition in vivo can enhance the anti-tumor activity of T-cells. Accordingly, the impact of targeting PTP1B and TC-PTP with compound 47 on JAK/STAT signaling and the activation of T-cells after crosslinking the TCR was assessed. The effects of compound 47 were compared with the genetic deletion of TC-PTP (encoded by Ptpn2) in T-cells (Lck-Cre; Ptpn2^fl/fl). First, the impact of compound 47 on TC-PTP and PTP1B protein levels was assessed by flow cytometry using validated antibodies. […] The degradation of TC-PTP and PTP1B was accompanied by a more than 3-fold increase in STAT1 Y701 phosphorylation and a 2-fold increase in STAT5 Y694 phosphorylation detected after crosslinking the TCR with α-CD3/α-CD28 to activate T-cells (FIG. 9B). Importantly, the promotion of pSTAT1/Y701 and pSTAT5/Y694 by compound 47 treatment exceeded that achieved by the genetic deletion of TC-PTP, consistent with compound 47 targeting both TC-PTP and PTP1B to enhance signaling. […] CD25 (IL-2 receptor a), and CD69 (FIG. 9C). […] This was not necessarily a surprise since TC-PTP, but not PTP1B, attenuates TCR signaling in naive CD8^+ T-cells.

PTP1B = molecular target: T1, PTP1B (Homo sapiens, UniProt P18031); experiment: Degradation assay in HEK293 cells (immunoblotting); assay type: cell-based; design: endogenous in cells; host or cells: HEK293; conditions: 0.2 μM degrader, 16 hours
T1 sequence (P18031 1-435): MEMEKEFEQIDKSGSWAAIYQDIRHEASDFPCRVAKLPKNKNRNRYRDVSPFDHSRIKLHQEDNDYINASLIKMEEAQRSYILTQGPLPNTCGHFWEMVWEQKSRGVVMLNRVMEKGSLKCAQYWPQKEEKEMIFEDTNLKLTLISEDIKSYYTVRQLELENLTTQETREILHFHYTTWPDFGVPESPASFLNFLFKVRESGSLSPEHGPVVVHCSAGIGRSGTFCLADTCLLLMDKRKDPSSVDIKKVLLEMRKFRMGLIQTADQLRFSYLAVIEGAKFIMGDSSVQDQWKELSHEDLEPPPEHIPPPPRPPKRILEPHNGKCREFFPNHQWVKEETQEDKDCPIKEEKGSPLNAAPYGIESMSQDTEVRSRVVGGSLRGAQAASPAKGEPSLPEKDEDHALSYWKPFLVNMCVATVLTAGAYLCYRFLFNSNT

TC-PTP = molecular target: T2, TC-PTP (Homo sapiens, UniProt P17706); experiment: Degradation assay in HEK293 cells (immunoblotting); assay type: cell-based; design: endogenous in cells; host or cells: HEK293; conditions: 0.2 μM degrader, 16 hours, read-out: % Protein Degradation TC-PTP
T2 sequence (P17706 1-415): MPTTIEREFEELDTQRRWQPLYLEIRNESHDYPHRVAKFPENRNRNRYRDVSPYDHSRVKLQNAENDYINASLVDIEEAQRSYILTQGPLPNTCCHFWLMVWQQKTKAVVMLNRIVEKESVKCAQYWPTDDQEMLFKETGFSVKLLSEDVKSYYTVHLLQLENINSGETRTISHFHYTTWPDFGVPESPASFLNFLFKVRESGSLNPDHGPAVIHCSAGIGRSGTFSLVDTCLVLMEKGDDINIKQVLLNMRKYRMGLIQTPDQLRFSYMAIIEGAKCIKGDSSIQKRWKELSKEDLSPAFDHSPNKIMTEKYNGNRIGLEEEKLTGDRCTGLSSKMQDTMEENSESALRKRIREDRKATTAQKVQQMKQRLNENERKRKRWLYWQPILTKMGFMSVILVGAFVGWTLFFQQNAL

[1] = after crosslinking the TCR with α-CD3/α-CD28

`COc1cc(CC(=O)N[C@@H](Cc2ccccc2)C(=O)N[C@@H](Cc2ccc(C(F)(F)P(=O)(O)O)cc2)C(=O)N[C@@H](CCCCNC(=O)c2ccc(C)c(Br)c2)C(=O)NCc2cccc(CC(=O)N[C@H](C(=O)N3C[C@H](O)C[C@H]3C(=O)N[C@@H](C)c3ccc(-c4scnc4C)cc3)C(C)(C)C)c2)ccc1O` [Compound 47, ((4-((S)-3-(((S)-6-(3-bromo-4-methylbenzamido)-1-((3-(2-(((S)-1-((2S,4R)-4-hydroxy-2-(((S)-1-(4-(4-methylthiazol-5-yl)phenyl)ethyl)carbamoyl)pyrrolidin-1-yl)-3,3-dimethyl-1-oxobutan-2-yl)amino)-2-oxoethyl)benzyl)amino)-1-oxohexan-2-yl)amino)-2-((S)-2-(2-(4-hydroxy-3-methoxyphenyl)acetamido)-3-phenylpropanamido)-3-oxopropyl)phenyl)difluoromethyl)phosphonic Acid] ({Phenylacetyl(4-OH,3-OMe)}-F[F2Pmp]K(Benzoyl(3-Br,4-Me))[NHCH2(1,3-C6H4)CH2CO][Tle][Hyp]-X1) was tested, and the “TCR-induced activation of T-cells (cell size, CD44, CD25, CD69)” value (CD8+ naïve T-cells) was “enhanced the TCR-induced activation of T-cells”, the “TC-PTP and PTP1B protein levels in T-cells” value (CD8+ naïve T-cells; 48 hr treatment) was “effectively degraded” and the “increase in STAT1 Y701 phosphorylation” value (CD8+ naïve T-cells; [1]) was “more than 3 fold”. The “increase in STAT5 Y694 phosphorylation” value (CD8+ naïve T-cells; [1]) was 2 fold, the “% Protein Degradation PTP1B” value (PTP1B) was 95% and the percent TC-PTP degradation at 0.2 µM (TC-PTP) was 92%.
